{
  "source": "patent US11179465B2",
  "about": "“Topical compositions comprising a corticosteroid” (PRIMUS PHARMACEUTICALS, INC., priority 2014, dated 2021)",
  "key": {"[1]": {"test": "Plasma concentrations of clobetasol propionate (PK blood samples)", "format": "in vivo, human", "method": "These investigational products were applied twice daily to all affected areas on the body excluding face, scalp, groin, axillae and other intertriginous areas. The subjects had 20 to 50% BSA treated to achieve maximal use exposure. The subjects were visited Screening, Baseline (Day 1), Day 8, Day 15 and Day 43 (if needed to confirm recovery). Clinical determinations of disease severity was conducted using the Investigator Global Assessment (IGA) for overall severity at each visit. Subjects were tested for HPA axis function using the ACTH stimulation test (i.e., a cosyntropin i.v. or i.m. injection) at the Screening Visit (at least 14 days and no more than 28 days prior to Baseline) and at Day 15. In addition, blood samples for serum dehydroepiandrosterone sulfate (DHEAS) was taken at Screening, on Day 8 and at the time of the ACTH stimulation test on Day 15 (pre-test sample) as a secondary measure of HPA axis suppression. At the time of the screening ACTH stimulation test, a PK blood sample was taken to obtain a baseline value (PK screening sample). On Day 15, subjects were applied the last dose of study product at the clinic up to 60 minutes after a pre-treatment PK blood sample was taken (0 hour-Day 15). PK blood samples was then collected at 1, 3 and 6 hours (±5 minutes) after application of the study product.\nSubjects had applied study product to all affected areas except the face, scalp, groin, axillae and other intertriginous areas. The target dose was at least 5 to 7 g per day (1 teaspoon of cream, twice daily, applied at approximately 1 mg/cm2 on 20% BSA—3000 cm2). All baseline affected areas and newly affected areas have been treated until the end of the study even if cleared. The investigator had marked the affected areas (in the source document), updated the marking at each visit, and reminded the subjects where study product was to be applied at each visit using the marking. Study product have been applied directly onto affected areas and rubbed in gently and completely. Study product have been applied after bathing, if applicable."}, "HPA axis": {"system": "HPA axis", "conditions": "topical; cited from earlier work"}, "[2]": {"conditions": "Average of Post-Treatment, subjects With HPA Axis Suppression"}, "[3]": {"conditions": "Average of Post-Treatment, subjects Without HPA Axis Suppression"}, "[4]": {"conditions": "Day 15: 1 Hour, subjects With HPA Axis Suppression"}, "[5]": {"conditions": "Day 15: 1 Hour, subjects Without HPA Axis Suppression"}, "[6]": {"conditions": "Day 15: 3 Hours, subjects With HPA Axis Suppression"}, "[7]": {"conditions": "Day 15: 3 Hours, subjects Without HPA Axis Suppression"}, "[8]": {"conditions": "Day 15: 6 Hours, subjects With HPA Axis Suppression"}, "[9]": {"conditions": "Day 15: 6 Hours, subjects Without HPA Axis Suppression"}, "[10]": {"conditions": "Day 15: Pre-Treatment (0 hour), subjects With HPA Axis Suppression"}, "[11]": {"conditions": "Day 15: Pre-Treatment (0 hour), subjects Without HPA Axis Suppression"}, "[12]": {"conditions": "Screening, subjects With HPA Axis Suppression (both creams pooled)"}, "[13]": {"conditions": "Screening, subjects Without HPA Axis Suppression (both creams pooled)"}},
  "data": [
    {"smiles": "CCC(=O)O[C@]1(C(=O)CCl)[C@@H](C)C[C@H]2[C@@H]3CCC4=CC(=O)C=C[C@]4(C)[C@@]3(F)[C@@H](O)C[C@@]21C", "note": "[Clobetasol Propionate, [17-(2′-chloroacetyl)-9-fluoro-11-hydroxy-10,13,16-trimethyl-3-oxo-6,7,8,11,12,14,15,16-octahydrocyclopenta[a]phenanthren-17-yl] propanoate]", "values": [
      {"measurement": "Plasma Concentration of Clobetasol Propionate, Mean ± SD", "setting": "[1]; [2]", "result": "0.217123 ± 0.1537979", "unit": "ng/mL"},
      {"measurement": "Plasma Concentration of Clobetasol Propionate, Median", "setting": "[1]; [2]", "result": 0.185565, "unit": "ng/mL"},
      {"measurement": "Plasma Concentration of Clobetasol Propionate, Mean ± SD", "setting": "[1]; [3]", "result": "0.071244 ± 0.1060424", "unit": "ng/mL"},
      {"measurement": "Plasma Concentration of Clobetasol Propionate, Median", "setting": "[1]; [3]", "result": 0.03174, "unit": "ng/mL"},
      {"measurement": "Plasma Concentration of Clobetasol Propionate, Mean ± SD", "setting": "[1]; [4]", "result": "0.210873 ± 0.1962904", "unit": "ng/mL"},
      {"measurement": "Plasma Concentration of Clobetasol Propionate, Median", "setting": "[1]; [4]", "result": 0.15588, "unit": "ng/mL"},
      {"measurement": "Plasma Concentration of Clobetasol Propionate, Mean ± SD", "setting": "[1]; [5]", "result": "0.081012 ± 0.1512306", "unit": "ng/mL"},
      {"measurement": "Plasma Concentration of Clobetasol Propionate, Median", "setting": "[1]; [5]", "result": 0.03173, "unit": "ng/mL"},
      {"measurement": "Plasma Concentration of Clobetasol Propionate, Mean ± SD", "setting": "[1]; [6]", "result": "0.200668 ± 0.1260445", "unit": "ng/mL"},
      {"measurement": "Plasma Concentration of Clobetasol Propionate, Median", "setting": "[1]; [6]", "result": 0.19545, "unit": "ng/mL"},
      {"measurement": "Plasma Concentration of Clobetasol Propionate, Mean ± SD", "setting": "[1]; [7]", "result": "0.067637 ± 0.1039073", "unit": "ng/mL"},
      {"measurement": "Plasma Concentration of Clobetasol Propionate, Median", "setting": "[1]; [7]", "result": 0.033185, "unit": "ng/mL"},
      {"measurement": "Plasma Concentration of Clobetasol Propionate, Mean ± SD", "setting": "[1]; [8]", "result": "0.205386 ± 0.1474279", "unit": "ng/mL"},
      {"measurement": "Plasma Concentration of Clobetasol Propionate, Median", "setting": "[1]; [8]", "result": 0.17805, "unit": "ng/mL"},
      {"measurement": "Plasma Concentration of Clobetasol Propionate, Mean ± SD", "setting": "[1]; [9]", "result": "0.065451 ± 0.0915422", "unit": "ng/mL"},
      {"measurement": "Plasma Concentration of Clobetasol Propionate, Median", "setting": "[1]; [9]", "result": 0.03626, "unit": "ng/mL"},
      {"measurement": "Plasma Concentration of Clobetasol Propionate, Mean ± SD", "setting": "[1]; [10]", "result": "0.195691 ± 0.1507514", "unit": "ng/mL"},
      {"measurement": "Plasma Concentration of Clobetasol Propionate, Median", "setting": "[1]; [10]", "result": 0.13649, "unit": "ng/mL"},
      {"measurement": "Plasma Concentration of Clobetasol Propionate, Mean ± SD", "setting": "[1]; [11]", "result": "0.055406 ± 0.1003403", "unit": "ng/mL"},
      {"measurement": "Plasma Concentration of Clobetasol Propionate, Median", "setting": "[1]; [11]", "result": 0.02623, "unit": "ng/mL"},
      {"measurement": "Plasma Concentration of Clobetasol Propionate, Mean ± SD", "setting": "[1]; [12]", "result": "0 ± 0", "unit": "ng/mL"},
      {"measurement": "Plasma Concentration of Clobetasol Propionate, Median", "setting": "[1]; [12]", "result": 0, "unit": "ng/mL"},
      {"measurement": "Plasma Concentration of Clobetasol Propionate, Mean ± SD", "setting": "[1]; [13]", "result": "0.001282 ± 0.0075844", "unit": "ng/mL"},
      {"measurement": "Plasma Concentration of Clobetasol Propionate, Median", "setting": "[1]; [13]", "result": 0, "unit": "ng/mL"},
      {"measurement": "Mean plasma clobetasol levels, subjects with HPA axis suppression relative to those without", "setting": "[1]; Table 8, both creams pooled", "result": "more than 3 times"},
      {"measurement": "Lowest dose at which the HPA axis is suppressed", "setting": "HPA axis", "result": 2, "unit": "grams per day"}
    ]}
  ]
}
